Measured values from patent publication US11059832B2, “HPK1 inhibitors and methods of using same” (University Health Network, priority 2015, dated 2021).
pIC50: −log10 of the molar value.

What was measured:
[1] = test system: SLP-76 serine 376 phosphorylation in α-CD3 stimulated Jurkat E6.1 cells; assay: In vitro phosphorylation assay, SLP-76 Ser376 (immunoblot); assay type: cell-based; conditions: Homo sapiens, 4 h pretreatment, substantive = >75% inhibition as estimated by immunoblot analysis, read-out: SLP76 S376 Phosphorylation Onset-Substantive* Inhibition
Method: (§1) Jurkat E6.1 cells were obtained from American Type Culture Collection (ATCC, Manassas, Va.), and maintained according to the supplier's instructions. Cells were washed three times and starved in RPMI 1640 medium supplemented with 0.5% fetal calf serum for 18 h at 37° C. Serum starved cells were pretreated with the indicated concentration of inhibitor for 4 hours before stimulation with 10 μg/ml α-CD3 antibody (BioLegend, Inc., San Diego, Calif.) for 10 min at 37° C. The cells were washed once in phosphate-buffered saline (pH 7.4) containing 10 mm sodium pyrophosphate, 10 mm sodium fluoride, 10 mm EDTA, and 1 mm sodium orthovanadate. Protein lysates were prepared using ice-cold radioimmunoprecipitation assay (RIPA) lysis buffer. A total of 100 μg of cell lysate was loaded onto Bis-Tris gels (Life Technologies, Carlsbad, Calif.) with full-range molecular weight marker as a size reference, and resolved by SDS-PAGE electrophoresis. Proteins were transferred to PVDF membrane (Millipore, Billerica, Mass.), blocked and probed with antibodies for phospho-SLP-76 (Ser376) (rabbit polyclonal #13177; Cell Signaling Technology Inc., Danvers, Mass.), SLP-76 (rabbit polyclonal #4958; Cell Signaling Technology Inc., Danvers, Mass.), phospho-ERK (mouse monoclonal sc-7383; Santa Cruz Biotechnology Inc., Santa Cruz, Calif.) and ERK1/2 (rabbit polyclonal 06-182; Millipore, Billerica, Mass.). Secondary antibodies were diluted 1 in 15,000 and incubated for 1 h at rt. Protein bands were visualized and quantified using Odyssey near infrared imager (LI-COR, Lincoln, Nebr.).
(§2) Table 2 below lists effects of representative compounds of the present invention against SLP-76 serine 376 phosphorylation and ERK1/2 T202/Y204 phosphorylation in α-CD3 stimulated Jurkat E6.1 cells.

[2] = test system: ERK1/2 T202/Y204 phosphorylation in α-CD3 stimulated Jurkat E6.1 cells; assay: In vitro phosphorylation assay, ERK1/2 T202/Y204 (immunoblot); assay type: cell-based; conditions: Homo sapiens, 4 h pretreatment, read-out: ERK1/2 T202/Y204 Phosphorylation Onset Inhibition
Method: as §1, §2

LCK = target: T1, LCK (Homo sapiens, UniProt P06239); assay: LCK inhibition, FRET based Z'-LYTE Kinase Assay; assay type: biochemical; conditions: 25 nM LCK, 180 μM ATP; read-out: IC50 Range Lck
T1 construct: purchased Invitrogen P3043
Method: (§3) FLT3 and LCK compound inhibition were determined using FRET based Z′-LYTE Kinase Assay Kit with Tyrosine 2 peptide as the substrate (Invitrogen cat #PV3191). […] The % inhibition values were determined according to the manufacturer's directions and IC50 values were obtained using a non-linear 4 point logistic curve fit (XLfit4, IDBS).

human HPK1 (MAP4K1) = target: T2, human HPK1 (MAP4K1) (Homo sapiens, UniProt Q92918); assay: HPK1 inhibition assay (indirect ELISA); assay type: biochemical; conditions: GST-HPK1 0.6 nM, 12 μM ATP; read-out: IC50 Range HPK1
T2 construct: human HPK1 (aa 1-346); purchased Invitrogen PV6355
T2 sequence (Q92918 1-346): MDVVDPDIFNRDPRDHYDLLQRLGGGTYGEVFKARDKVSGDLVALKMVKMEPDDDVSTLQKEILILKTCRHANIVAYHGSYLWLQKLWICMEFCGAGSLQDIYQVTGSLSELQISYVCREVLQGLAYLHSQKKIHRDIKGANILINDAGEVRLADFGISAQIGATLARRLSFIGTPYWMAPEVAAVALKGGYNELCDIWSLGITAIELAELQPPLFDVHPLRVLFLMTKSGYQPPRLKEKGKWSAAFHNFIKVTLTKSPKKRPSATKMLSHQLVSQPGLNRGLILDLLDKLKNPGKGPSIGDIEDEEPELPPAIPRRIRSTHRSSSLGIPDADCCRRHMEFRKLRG
Summary of the method: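 GST-tagged human HPK1 (aa 1-346, 0.6 nM) phosphorylated MBP-coated wells with 12 μM ATP in MOPS pH 7.2/Mg2+ buffer for 30 min after 15-min compound preincubation; phospho-Thr detected by antibody ELISA with TMB, 450 nm. Tested at 10 μM or 10-point titration (typically 50-0.1 μM); IC50 by 4-parameter logistic fit.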

FLT3 = target: T3, FLT3 (Homo sapiens, UniProt P36888); assay: FLT3 inhibition, FRET based Z'-LYTE Kinase Assay; assay type: biochemical; conditions: 1 nM FLT3, 940 μM ATP; read-out: IC50 Range Flt3
T3 construct: purchased Invitrogen PV3182
T3 sequence (P36888 27-993): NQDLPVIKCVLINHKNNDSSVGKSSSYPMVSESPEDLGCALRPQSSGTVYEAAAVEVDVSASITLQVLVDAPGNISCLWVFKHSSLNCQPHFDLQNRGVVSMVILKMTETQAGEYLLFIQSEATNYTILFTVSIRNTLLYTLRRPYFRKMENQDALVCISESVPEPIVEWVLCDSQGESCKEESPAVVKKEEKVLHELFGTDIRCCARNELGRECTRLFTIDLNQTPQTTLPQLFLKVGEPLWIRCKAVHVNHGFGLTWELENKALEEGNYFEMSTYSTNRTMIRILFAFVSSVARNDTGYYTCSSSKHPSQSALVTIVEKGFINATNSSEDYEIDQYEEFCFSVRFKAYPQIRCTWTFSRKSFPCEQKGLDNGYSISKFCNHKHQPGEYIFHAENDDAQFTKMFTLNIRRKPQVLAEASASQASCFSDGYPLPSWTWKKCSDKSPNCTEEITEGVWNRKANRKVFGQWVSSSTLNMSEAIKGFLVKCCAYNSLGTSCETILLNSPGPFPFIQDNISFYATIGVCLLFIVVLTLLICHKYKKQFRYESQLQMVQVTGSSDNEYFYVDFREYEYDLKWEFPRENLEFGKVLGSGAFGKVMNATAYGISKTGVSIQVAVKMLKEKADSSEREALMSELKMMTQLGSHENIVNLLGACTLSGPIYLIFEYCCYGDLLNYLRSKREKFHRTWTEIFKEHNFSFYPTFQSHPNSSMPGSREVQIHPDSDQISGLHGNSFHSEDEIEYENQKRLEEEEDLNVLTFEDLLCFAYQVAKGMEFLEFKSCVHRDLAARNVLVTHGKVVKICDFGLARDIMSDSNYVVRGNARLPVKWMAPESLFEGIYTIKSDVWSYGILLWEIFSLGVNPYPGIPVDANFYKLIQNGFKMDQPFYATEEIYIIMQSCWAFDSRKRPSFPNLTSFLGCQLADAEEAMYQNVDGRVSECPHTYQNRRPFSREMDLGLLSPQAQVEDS
Method: as §3

T1 sequence (P06239 whole entry, species assumed): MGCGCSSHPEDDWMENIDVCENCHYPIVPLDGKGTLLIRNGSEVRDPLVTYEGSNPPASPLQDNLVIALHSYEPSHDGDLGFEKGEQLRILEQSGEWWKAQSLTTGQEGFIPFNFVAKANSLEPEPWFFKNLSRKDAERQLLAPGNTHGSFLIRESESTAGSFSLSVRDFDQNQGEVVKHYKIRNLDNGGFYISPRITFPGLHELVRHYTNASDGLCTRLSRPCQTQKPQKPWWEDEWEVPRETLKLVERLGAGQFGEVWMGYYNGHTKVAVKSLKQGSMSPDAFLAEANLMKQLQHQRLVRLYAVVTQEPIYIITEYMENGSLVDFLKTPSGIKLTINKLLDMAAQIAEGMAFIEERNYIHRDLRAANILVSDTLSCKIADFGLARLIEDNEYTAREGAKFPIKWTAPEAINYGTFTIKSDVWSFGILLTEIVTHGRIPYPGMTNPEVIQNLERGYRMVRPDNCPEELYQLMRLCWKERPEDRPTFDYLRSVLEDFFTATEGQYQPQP

Row | pIC50 (LCK) | pIC50 (human HPK1 (MAP4K1)) | pIC50 (FLT3) | Compound | IC75 [1] | minimal effective concentration [2]
1 | ≥ 7.30 | ≥ 7.30 | ≥ 7.30 | CN1CCN(c2ccc3nc(-c4c(N[C@H]5CC[C@H](O)CC5)c5sccc5[nH]c4=O)[nH]c3c2)CC1 [Example A37, 7-(((1r,4r)-4-hydroxycyclohexyl)amino)-6-(6-(4-methylpiperazin-1-yl)-1H-benzo[d]imidazol-2-yl)thieno[3,2-b]pyridin-5(4H)-one] | 100 to 300 nM | 1 to 3 µM
2 | 6.30 to 7.30 | ≥ 7.30 | ≥ 7.30 | O=c1[nH]c2ccsc2c(NC2CCNCC2)c1-c1nc2ccc(N3CCOCC3)cc2[nH]1 [Example A43, 6-(6-morpholino-1H-benzo[d]imidazol-2-yl)-7-(piperidin-4-ylamino)thieno[3,2-b]pyridin-5(4H)-one] | 100 to 300 nM | > 3 µM
3 | 6.30 to 7.30 | ≥ 7.30 | ≥ 7.30 | CN1CCN(c2ccc3nc(-c4c(N[C@H]5CCCC[C@H]5O)c5ccsc5[nH]c4=O)[nH]c3c2)CC1 [Example A57, 4-(((1S,2R)-2-hydroxy-cyclohexyl)amino)-5-(6-(4-methylpiperazin-1-yl)-1H-benzo[d]imidazol-2-yl)thieno-[2,3-b]pyridin-6(7H)-one] | 300 to 1000 nM | > 3 µM
4 | ≥ 7.30 | ≥ 7.30 | ≥ 7.30 | CN1CCN(c2ccc3nc(-c4c(N[C@H]5CCC[C@@H]5O)c5ccsc5[nH]c4=O)[nH]c3c2)CC1 [Example A66, 4-(((1S,2S)-2-hydroxycyclopentyl)amino)-5-(6-(4-methylpiperazin-1-yl)-1H-benzo[d]imidazol-2-yl)thieno[2,3-b]pyridin-6(7H)-one] | – | –
5 | 6.30 to 7.30 | ≥ 7.30 | ≥ 7.30 | CN1CCN(c2ccc3nc(-c4c(N[C@@H]5CCC[C@H]5O)c5ccsc5[nH]c4=O)[nH]c3c2)CC1 [Example A67, 4-(((1R,2R)-2-hydroxycyclopentyl)amino)-5-(6-(4-methylpiperazin-1-yl)-1H-benzo[d]imidazol-2-yl)thieno[2,3-b]pyridin-6(7H)-one] | – | –
6 | ≥ 7.30 | ≥ 7.30 | ≥ 7.30 | CN1CCN(c2cc3[nH]c(-c4c(N)c5sccc5[nH]c4=O)nc3cc2F)CC1 [Example A68, 7-amino-6-(5-fluoro-6-(4-methylpiperazin-1-yl)-1H-benzo[d]imidazol-2-yl)thieno[3,2-b]pyridin-5(4H)-one] | – | –
7 | ≥ 7.30 | ≥ 7.30 | ≥ 7.30 | CN1CCN(c2ccc3nc(-c4c(N[C@@H]5CCOC5)c5cscc5[nH]c4=O)[nH]c3c2)CC1 [Example A71, (R)-3-(6-(4-methylpiperazin-1-yl)-1H-benzo[d]imidazol-2-yl)-4-((tetrahydrofuran-3-yl)amino)thieno[3,4-b]pyridin-2(1H)-one] | – | –
8 | < 6.30 | ≥ 7.30 | ≥ 7.30 | O=c1[nH]c2sccc2c(N[C@H]2CCCC[C@H]2O)c1-c1nc2ccc(N3CCOCC3)cc2[nH]1 [Example A72, 4-(((1S,2R)-2-hydroxycyclohexyl)amino)-5-(6-morpholino-1H-benzo[d]imidazol-2-yl)thieno[2,3-b]pyridin-6(7H)-one] | – | –

The remaining lines, values behind:

Row | Compound | pIC50 (LCK) | pIC50 (human HPK1 (MAP4K1)) | pIC50 (FLT3) | IC75 [1] | minimal effective concentration [2]
9 | CN1CCN(c2ccc3nc(-c4c(N[C@@H]5CCOC5)c5ccsc5[nH]c4=O)[nH]c3c2)CC1 [Example A10, (R)-5-(6-(4-methylpiperazin-1-yl)-1H-benzo[d]imidazol-2-yl)-4-((tetrahydrofuran-3-yl)amino)thieno[2,3-b]pyridin-6(7H)-one] | 6.30 to 7.30 | ≥ 7.30 | ≥ 7.30 | 1000 to 3000 nM | > 3 µM
10 | CN1CCC(Nc2c(-c3nc4ccc(N5CCOCC5)cc4[nH]3)c(=O)[nH]c3sccc23)CC1 [Example A18, 4-((1-methylpiperidin-4-yl)amino)-5-(6-morpholino-1H-benzo[d]imidazol-2-yl)thieno[2,3-b]pyridin-6(7H)-one] | 6.30 to 7.30 | ≥ 7.30 | ≥ 7.30 | 300 to 1000 nM | > 3 µM
11 | CN1CCN(c2ccc3nc(-c4c(N)c5c(N6CCNCC6)csc5[nH]c4=O)[nH]c3c2)CC1 [Example A21, 4-amino-5-(6-(4-methylpiperazin-1-yl)-1H-benzo[d]imidazol-2-yl)-3-(piperazin-1-yl)thieno[2,3-b]pyridin-6(7H)-one] | < 6.30 | ≥ 7.30 | 6.30 to 7.30 | > 3000 nM | > 3 µM
12 | CN1CCN(c2ccc3nc(-c4c(N)c5cscc5[nH]c4=O)[nH]c3c2)CC1 [Example A23, 4-amino-3-(6-(4-methylpiperazin-1-yl)-1H-benzo[d]imidazol-2-yl)thieno[3,4-b]pyridin-2(1H)-one] | ≥ 7.30 | ≥ 7.30 | ≥ 7.30 | 300 to 1000 nM | > 3 µM
13 | CN1CCN(c2ccc3nc(-c4c(N)c5sccc5[nH]c4=O)[nH]c3c2)CC1 [Example A30, 7-amino-6-(6-(4-methylpiperazin-1-yl)-1H-benzo[d]imidazol-2-yl)thieno[3,2-b]pyridin-5(4H)-one] | ≥ 7.30 | ≥ 7.30 | ≥ 7.30 | 300 to 1000 nM | > 3 µM
14 | CN1CCN(c2ccc3nc(-c4c(NC5CCCC5)c5sccc5[nH]c4=O)[nH]c3c2)CC1 [Example A34, 7-(cyclopentylamino)-6-(6-(4-methylpiperazin-1-yl)-1H-benzo[d]imidazol-2-yl)thieno[3,2-b]pyridin-5(4H)-one] | ≥ 7.30 | ≥ 7.30 | ≥ 7.30 | 1000 to 3000 nM | 3 µM
